Assay results as given in patent US8143293B2, “Kinase inhibitors useful for the treatment of myleoprolific diseases and other proliferative diseases” (Deciphera Pharmaceuticals, LLC, priority 2007, dated 2012).

How the values were obtained:
[1] = biological target: T1, Abl kinase (SEQ ID NO: 1) (Homo sapiens, UniProt P00519); assay: Abl kinase (SEQ ID NO:1) assay, pyruvate kinase/lactate dehydrogenase coupled; conditions: 2 h preincubation, ATP 500 μM; read-out: Biochemical IC50, Abl Enzyme Assay
T1 construct: purchased deCode Genetics
T1 sequence (P00519 with tags, fused parts or gaps): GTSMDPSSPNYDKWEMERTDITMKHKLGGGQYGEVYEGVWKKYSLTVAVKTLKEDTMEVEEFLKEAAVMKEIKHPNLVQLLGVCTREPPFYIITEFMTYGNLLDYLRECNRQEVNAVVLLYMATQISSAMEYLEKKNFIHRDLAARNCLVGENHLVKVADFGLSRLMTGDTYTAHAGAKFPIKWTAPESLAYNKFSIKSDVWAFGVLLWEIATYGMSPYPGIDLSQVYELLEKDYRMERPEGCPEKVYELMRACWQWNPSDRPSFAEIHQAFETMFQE
Protocol: Abl Kinase (SEQ ID NO:1) Assay
Activity of Abl kinase (SEQ ID NO: 1) was determined by following the production of ADP from the kinase reaction through coupling with the pyruvate kinase/lactate dehydrogenase system (e.g., Schindler, et al. Science (2000) 289, 1938-1942). In this assay, the oxidation of NADH (thus the decrease at A340 nm) was continuously monitored spectrophometrically. The reaction mixture (100 μl) contained Abl kinase (1 nM. Abl from deCode Genetics), peptide substrate (EAIYAAPFAKKK, 0.2 mM), MgCl2 (10 mM), pyruvate kinase (4 units), lactate dehydrogenase (0.7 units), phosphoenol pyruvate (1 mM), and NADH (0.28 mM) in 90 mM Tris buffer containing 0.2% octyl-glucoside and 3.5% DMSO, pH 7.5. Test compounds were incubated with Abl (SEQ ID NO:1) and other reaction reagents at 30° C. for 2 h before ATP (500 μM) was added to start the reaction. The absorption at 340 nm was monitored continuously for 2 hours at 30° C. on Polarstar Optima plate reader (BMG). The reaction rate was calculated using the 1.0 to 2.0 h time frame. Percent inhibition was obtained by comparison of reaction rate with that of a control (i.e. with no test compound). IC50 values were calculated from a series of percent inhibition values determined at a range of inhibitor concentrations using software routines as implemented in the GraphPad Prism software package.

[2] = biological target: T2, c-Kit kinase (SEQ ID NO:9) (Homo sapiens, UniProt P10721); assay: C-Kit kinase (SEQ ID NO:9) assay, pyruvate kinase/lactate dehydrogenase coupled; conditions: <2 min preincubation, ATP 200 μM; read-out: Biochemical IC50, c-Kit Enzyme Assay
T2 construct: contained c-Kit (cKIT residues T544-V976, from ProQinase, 5.4 nM); purchased ProQinase
Protocol: C-Kit Kinase (SEQ ID NO:9) Assay
Activity of c-Kit kinase (SEQ ID NO:9) was determined by following the production of ADP from the kinase reaction through coupling with the pyruvate kinase/lactate dehydrogenase system (e.g., Schindler, et al. Science (2000) 289, 1938-1942). In this assay, the oxidation of NADH (thus the decrease at A340 nm) was continuously monitored spectrophometrically. The reaction mixture (100 μl) contained c-Kit (cKIT residues T544-V976, from ProQinase, 5.4 nM), polyE4Y (1 mg/ml), MgCl2 (10 mM), pyruvate kinase (4 units), lactate dehydrogenase (0.7 units), phosphoenol pyruvate (1 mM), and NADH (0.28 mM) in 90 mM Tris buffer containing 0.2% octyl-glucoside and 1% DMSO, pH 7.5. Test compounds were incubated with […] (SEQ ID NO:9) and other reaction reagents at 22° C. for <2 min before ATP (200 μM) was added to start the reaction. The absorption at 340 nm was monitored continuously for 0.5 hours at 30° C. on Polarstar Optima plate reader (BMG). The reaction rate was calculated using the 0 to 0.5 h time frame. Percent inhibition was obtained by comparison of reaction rate with that of a control (i.e. with no test compound). IC50 values were calculated from a series of percent inhibition values determined at a range of inhibitor concentrations using software routines as implemented in the GraphPad Prism software package.

[3] = biological target: T3, C-Met kinase (SEQ ID NO:10) (Homo sapiens, UniProt P08581); assay: C-Met kinase (SEQ ID NO:10) assay, pyruvate kinase/lactate dehydrogenase coupled; conditions: 0.5 h preincubation, ATP 100 μM; read-out: Biochemical IC50, c-Met Enzyme Assay
T3 construct: 956-1390, from Invitrogen, catalogue #PV3143; His6 (N-terminal leader MSYYHHHHHH... with TEV and thrombin sites) (N); purchased Invitrogen PV3143
Protocol: C-Met Kinase (SEQ ID NO:10) Assay
Activity of C-Met kinase (SEQ ID NO:10) was determined by following the production of ADP from the kinase reaction through coupling with the pyruvate kinase/lactate dehydrogenase system (e.g., Schindler, et al. Science (2000) 289, 1938-1942). In this assay, the oxidation of NADH (thus the decrease at A340 nm) was continuously monitored spectrophometrically. The reaction mixture (100 μl) contained C-Met (c-Met residues; 956-1390, from Invitrogen, catalogue #PV3143, […]), polyE4Y (1 mg/ml), MgCl2 (10 mM), pyruvate kinase (4 units), lactate dehydrogenase (0.7 units), phosphoenol pyruvate (1 mM), and NADH (0.28 mM) in 90 mM Tris buffer containing 0.25 mM DTT, 0.2% octyl-glucoside and 1% DMSO, pH 7.5. Test compounds were incubated with C-Met (SEQ ID NO:10) and other reaction reagents at 22° C. for 0.5 h before ATP (100 μM) was added to start the reaction. The absorption at 340 nm was monitored continuously for 2 hours at 30° C. on Polarstar Optima plate reader (BMG). The reaction rate was calculated using the 1.0 to 2.0 h time frame. Percent inhibition was obtained by comparison of reaction rate with that of a control (i.e. with no test compound). IC50 values were calculated from a series of percent inhibition values determined at a range of inhibitor concentrations using software routines as implemented in the GraphPad Prism software package.

[4] = biological target: T4, BaF3 cells transfected with wild type p210 BCR-Abl (Homo sapiens, UniProt P00519); assay: Ba/F3 p210 whole cell proliferation assay; format: cell-based; conditions: 72 hours, Cell Titer Blue; read-out: Whole Cell Antiproliferation IC50, Ba/F3 p210 whole cell proliferation assay
T4 construct: fused on or other part: P11274 (Breakpoint cluster region protein)
Protocol: (§1) BaF3 cells (parental or transfected with the following: wild type p210 BCR-Abl and T315I p210 BCR-Abl was obtained from Professor Richard Van Etten (New England Medical Center, Boston, Mass.). Briefly, cells were grown in RPMI 1640 supplemented with 10% characterized fetal bovine serum (HyClone, Logan, Utah) at 37 degrees Celsius, 5% CO2, 95% humidity. Cells were allowed to expand until reaching 80% saturation at which point they were subcultured or harvested for assay use.
(§2) A serial dilution of test compound was dispensed into a 96 well black clear bottom plate (Corning, Corning, N.Y.). For each cell line, three thousand cells were added per well in complete growth medium. Plates were incubated for 72 hours at 37 degrees Celsius, 5% CO2, 95% humidity. At the end of the incubation period Cell Titer Blue (Promega, Madison, Wis.) was added to each well and an additional 4.5 hour incubation at 37 degrees Celsius, 5% CO2, 95% humidity was performed. Plates were then read on a BMG Fluostar Optima (BMG, Durham, N.C.) using an excitation of 544 nm and an emission of 612 nm. Data was analyzed using Prism software (Graphpad, San Diego, Calif.) to calculate IC50's.

[5] = biological target: T5, BaF3 cells transfected with T315I p210 BCR-Abl (Homo sapiens, UniProt P00519, T315I, cells depend on it); assay: Ba/F3 p210 T315I whole cell proliferation assay; format: cell-based; conditions: 72 hours, Cell Titer Blue; read-out: Whole Cell Antiproliferation IC50, Ba/F3 p210 T315I whole cell proliferation assay
T5 construct: fused on or other part: P11274 (Breakpoint cluster region protein)
Protocol: as §1, §2

T3 sequence (P08581 with tags, fused parts or gaps): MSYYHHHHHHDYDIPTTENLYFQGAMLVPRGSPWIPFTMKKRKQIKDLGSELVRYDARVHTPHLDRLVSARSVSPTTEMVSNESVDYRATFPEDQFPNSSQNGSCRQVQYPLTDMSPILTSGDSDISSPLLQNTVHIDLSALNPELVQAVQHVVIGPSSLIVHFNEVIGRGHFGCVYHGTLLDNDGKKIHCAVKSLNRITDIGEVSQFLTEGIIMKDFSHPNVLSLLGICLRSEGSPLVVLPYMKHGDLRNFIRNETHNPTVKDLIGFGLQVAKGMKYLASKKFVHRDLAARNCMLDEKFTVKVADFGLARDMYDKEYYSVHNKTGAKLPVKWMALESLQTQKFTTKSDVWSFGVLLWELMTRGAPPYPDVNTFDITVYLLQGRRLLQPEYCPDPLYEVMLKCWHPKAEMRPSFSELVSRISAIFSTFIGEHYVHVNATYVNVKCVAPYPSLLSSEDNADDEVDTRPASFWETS
T2 sequence (P10721 with tags, fused parts or gaps): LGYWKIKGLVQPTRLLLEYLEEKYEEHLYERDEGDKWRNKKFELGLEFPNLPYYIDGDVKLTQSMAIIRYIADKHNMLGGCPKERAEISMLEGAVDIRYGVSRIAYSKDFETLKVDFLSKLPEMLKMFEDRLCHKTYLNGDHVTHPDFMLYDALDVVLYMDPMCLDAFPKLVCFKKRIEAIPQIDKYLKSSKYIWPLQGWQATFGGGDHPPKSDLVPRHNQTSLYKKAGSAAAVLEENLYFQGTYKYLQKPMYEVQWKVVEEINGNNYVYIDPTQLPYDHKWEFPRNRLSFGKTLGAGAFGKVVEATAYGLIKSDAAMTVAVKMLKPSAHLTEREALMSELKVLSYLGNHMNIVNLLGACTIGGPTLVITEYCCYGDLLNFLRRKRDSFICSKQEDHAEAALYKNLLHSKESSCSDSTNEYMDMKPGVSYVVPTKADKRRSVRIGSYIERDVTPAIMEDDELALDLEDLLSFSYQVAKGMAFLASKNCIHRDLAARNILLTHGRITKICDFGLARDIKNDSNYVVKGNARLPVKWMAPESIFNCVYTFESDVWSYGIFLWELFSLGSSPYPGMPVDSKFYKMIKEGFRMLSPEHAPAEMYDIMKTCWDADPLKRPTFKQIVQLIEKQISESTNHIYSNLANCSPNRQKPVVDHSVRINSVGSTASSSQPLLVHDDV

- IC50 [1]: < 100 nM
- IC50 [2]: < 100 nM
- IC50 [3]: < 10000 nM
- GI50 [4]: < 100 nM
- GI50 [5]: < 100000 nM
SMILES: Cn1cc(-c2cc(Oc3ccc(NC(=O)Nc4noc5ccccc45)c(F)c3)ccn2)cn1 [Example 24, 1-(benzo[d]isoxazol-3-yl)-3-(2-fluoro-4-(2-(1-methyl-1H-pyrazol-4-yl)pyridin-4-yloxy)phenyl)urea]
